The structures appear in SMILES notation.

Consider two compounds from article PMC6349845, “Overcoming NADPH product inhibition improves D-sorbitol conversion to L-sorbose” (Scientific Reports, 2019).

Experiment [1] concerns the target T1, GoSLDH (Gluconobacter oxydans, UniProt Q9KWR5).
T1 construct: codon-optimised synthetic gene in pET28a, expressed in E. coli BL21-CodonPlus(DE3)-RIL, purified (His-tag vector)
T1 sequence (Q9KWR5 1-485): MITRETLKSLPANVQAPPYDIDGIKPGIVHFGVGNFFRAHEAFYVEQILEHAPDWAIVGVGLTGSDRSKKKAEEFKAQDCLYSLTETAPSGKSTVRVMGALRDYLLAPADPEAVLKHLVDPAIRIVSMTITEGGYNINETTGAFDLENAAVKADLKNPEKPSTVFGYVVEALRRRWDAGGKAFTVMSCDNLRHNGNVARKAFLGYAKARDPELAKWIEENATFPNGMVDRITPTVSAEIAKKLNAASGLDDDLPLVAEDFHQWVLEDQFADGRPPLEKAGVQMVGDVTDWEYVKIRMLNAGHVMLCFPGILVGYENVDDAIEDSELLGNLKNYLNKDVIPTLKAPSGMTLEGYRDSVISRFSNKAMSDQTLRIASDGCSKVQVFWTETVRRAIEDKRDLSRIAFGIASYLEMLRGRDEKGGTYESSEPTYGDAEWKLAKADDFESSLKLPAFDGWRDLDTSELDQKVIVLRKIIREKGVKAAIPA
Nature of the experiment: isothermal titration calorimetry. Format: binding.

Experiment [2] addresses T1, GoSLDH. The experiment can be described thus: steady-state inhibition kinetics, double-reciprocal plots. It counts as biochemical.

Compound `NC(=O)c1ccc[n+]([C@@H]2O[C@H](COP(=O)(O)OP(=O)(O)OC[C@H]3O[C@@H](n4cnc5c(N)ncnc54)[C@H](OP(=O)(O)O)[C@@H]3O)[C@@H](O)[C@H]2O)c1` [NADP^+] yielded a Kd in experiment [1] of 89.3 µM.
The compound `NC(=O)C1=CN([C@@H]2O[C@H](COP(=O)(O)OP(=O)(O)OC[C@H]3O[C@@H](n4cnc5c(N)ncnc54)[C@H](OP(=O)(O)O)[C@@H]3O)[C@@H](O)[C@H]2O)C=CC1` [NADPH] returned an equilibrium dissociation constant (Kd) in experiment [1] of 67.1 µM. This compound also came in with a Ki in experiment [2] of 100 µM.
